Experimental data taken from PubChem BioAssay (NCI).
“And” between values parts separate entries of the source, which are not always exact repeats. Equal entries are not always repeated.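 All cell lines were grown in 96-well plates and treated with compound for 48 hours. GI50 is the concentration that inhibits growth by half. TGI marks complete inhibition of growth.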

Assays:
Test in all cases: NCI tumour cell line growth inhibition, 48 h
[1] = tested on: MOLT-4 leukemia
[2] = tested on: RXF 393 renal
[3] = tested on: SK-OV-3 ovarian
[4] = tested on: OVCAR-3 ovarian
[5] = tested on: DU-145 prostate
[6] = tested on: HS 578T breast
[7] = tested on: NCI-H23 lung
[8] = tested on: NCI-H460 lung
[9] = tested on: K-562 leukemia
[10] = tested on: UACC-257 melanoma
[11] = tested on: SF-295 CNS
[12] = tested on: MDA-MB-231 breast

| Structure (SMILES) | TGI [1] | TGI [2] | TGI [3] | TGI [4] | TGI [5] | TGI [6] | TGI [7] | TGI [8] | TGI [9] | TGI [10] | TGI [11] | TGI [12] | GI50 [2] | GI50 [9] | GI50 [10] |
| --- | --- | --- | --- | --- | --- | --- | --- | --- | --- | --- | --- | --- | --- | --- | --- |
| Cc1cn(Cc2ccccc2CCl)c(=O)[nH]c1=O | > 100 µM | 23.9 µM | > 100 µM | 12.6 µM | 31.3 µM | 56.6 µM | 23.3 µM | 44.3 µM | 56 µM | 31.1 µM | 30.4 µM | – | – | – | – |
| N/C(=N/n1c(=S)[nH]c2ccccc2c1=O)Nn1c(=S)[nH]c2ccccc2c1=O | 31 µM | > 100 µM | > 100 µM | > 100 µM | > 100 µM | – | 62.4 µM | > 100 µM | 83.6 µM | > 100 µM | > 100 µM | > 100 µM | – | – | – |
| C[Si](C)(OCCS(=O)(=O)O)C1S(=O)(=O)OCCOS1(=O)=O | > 100 µM | > 100 µM | > 100 µM | > 100 µM | > 100 µM | – | > 100 µM | > 100 µM | > 100 µM | > 100 µM | 31.8 µM | > 100 µM | – | – | – |
| CC(C)C1OC(=O)/C=C/C=C/C=C/C=C/C=C/CC(O)CC(O)CC(O)CC(O)CC(O)CC(O)CC(O)CC(O)/C=C/C1C (stereo unspecified) | > 100 µM | > 100 µM | – | > 100 µM | > 100 µM | – | > 100 µM | > 100 µM | > 100 µM | > 100 µM | > 100 µM | > 100 µM | – | – | – |
| c1cc2c(c(-c3c4ccccc4nc4ccccc34)c1)CC1(CC2)OCCO1 | > 100 µM | > 100 µM | > 100 µM | > 100 µM | – | – | > 100 µM | > 100 µM | > 100 µM | > 100 µM | > 100 µM | > 100 µM | – | – | – |
| COc1cc2c(c(OC)c1OC)-c1ccc(SC)cc1[C@H](OC(=O)c1ccccc1)CC2 | > 100 µM | 0.452 µM | > 100 µM | > 100 µM | > 61 µM | – | > 100 µM | > 100 µM | > 100 µM | > 100 µM | > 100 µM | – | – | – | – |
| NC(=O)N1N=C2c3ccccc3SC[C@H]2[C@@H]1c1ccccc1 | 77.4 µM | 26 µM | – | 35.1 µM | – | – | > 100 µM | 40.8 µM | > 100 µM | 54 µM | 80.4 µM | – | – | – | – |
| COc1ccc(CC2NC(=O)/C=C/CC(C(C)C3OC3c3ccccc3)OC(=O)C(CC(C)C)OC(=O)C(C)CNC2=O)cc1Cl (stereo unspecified) | – | – | > 0.1 µM | 0.000584 µM | > 0.1 µM | – | > 0.1 µM | 0.00696 µM | > 0.0416 µM | > 0.1 µM | – | 3.5e-05 µM | – | – | – |
| CC(=O)OC1c2ccccc2CCCCCCC12OCCO2 (stereo unspecified) | > 100 µM | > 100 µM | > 100 µM | > 100 µM | – | – | > 100 µM | > 100 µM | > 100 µM | > 100 µM | > 100 µM | – | – | – | – |
| COC(=O)CCC12CCC(O1)c1ccccc12 (stereo unspecified) | > 100 µM | > 100 µM | > 100 µM | – | > 100 µM | – | > 100 µM | > 100 µM | > 100 µM | > 100 µM | > 100 µM | > 100 µM | – | – | – |
| CC(C)=CCSC1CC2C(CC1(C)O)C2(C)C (stereo unspecified) | 40.9 µM and 67.5 µM | 11.2 µM and 28.4 µM | 28.2 µM and 29.7 µM | 31.2 µM and 23.6 µM | – | – | 29.8 µM and 25 µM | 33.7 µM and 27.2 µM | 80.1 µM and 29.6 µM | 32.6 µM and 20.6 µM | 55.9 µM and 35.2 µM | – | 2.01 µM and 14.9 µM | 28.2 µM and 10.1 µM | 18.3 µM and 7.13 µM |
| CCOc1cc(NC(C)=O)ccc1C(=O)NN1C(=O)/C(=C/c2cc(OC)c(OC)c(OC)c2)N=C1c1ccccc1 | > 100 µM | – | > 100 µM | > 100 µM | – | > 100 µM | > 100 µM | > 100 µM | > 100 µM | > 100 µM | > 100 µM | – | – | – | – |
| COc1cc(COC(=O)N2CCC2C(=O)O)c([N+](=O)[O-])cc1OC (stereo unspecified) | > 100 µM | > 100 µM | > 100 µM | > 100 µM | > 100 µM | > 100 µM | > 100 µM | > 100 µM | > 100 µM | > 100 µM | > 100 µM | – | – | – | – |
| COC(=O)c1csc(-c2nc(CCNC(=O)OC(C)(C)C)sc2Br)n1 | > 100 µM | > 100 µM | > 100 µM | > 100 µM | > 100 µM | > 100 µM | > 100 µM | > 100 µM | > 100 µM | > 100 µM | > 100 µM | – | – | – | – |
| COc1ccc(C2S/C(=C\c3ccc(O)cc3)C(=O)N2NC(=O)Cc2ccccc2)cc1 (stereo unspecified) | > 100 µM | > 100 µM | > 100 µM | – | – | – | > 100 µM | > 100 µM | > 100 µM | > 100 µM | > 100 µM | – | – | – | – |
| CC(=O)OCC1=C(C)C(OC(=O)C(OC(C)=O)[C@@H](NC(=O)c2ccccc2)c2ccccc2)CCC1(C)C (stereo partly specified) | > 100 µM | > 100 µM | > 100 µM | > 100 µM | > 100 µM | – | > 100 µM | > 100 µM | > 100 µM | > 100 µM | > 100 µM | > 100 µM | – | – | – |
| CNC1=CC(=O)C2=C(C1=O)[C@H]1CC[C@]3(C)C(=O)CC[C@H]3[C@@H]1CC2 | > 49.1 µM | 41.1 µM | > 100 µM | 9.3 µM | 28.8 µM | – | 19.9 µM | 39.5 µM | > 57.5 µM | 28.8 µM | 29.1 µM | > 64.8 µM | – | – | – |
